# PubChem BioAssay AID1996
# Settings: buffer; pH 7.4; 200.0 µM
row,SMILES,solubility kinetic
1,COCC(=O)Nc1ccc(Br)cc1C,35.8 µg/mL
2,Cc1ccc(C(=O)NCCc2c[nH]c3ccccc23)c(C)c1,23 µg/mL
3,CN1c2ccccc2C(=O)C(=C2SCCCS2)S1(=O)=O,27 µg/mL
4,Cc1cc(O)c(C(=O)Nc2cccc(Cl)c2)c(=O)n1C,< 0.3 µg/mL
5,CC(C)(C)c1csc(NC(=O)c2ccc(Br)o2)n1,16 µg/mL
6,CC(OC(=O)c1ccc2c(c1)S(=O)(=O)c1ccccc1C2=O)C(N)=O (stereo not given),29.3 µg/mL
7,O=C(CNC(=O)c1ccc(Br)o1)NCc1ccc(F)cc1,> 53.3 µg/mL
8,CCOC(=O)Cn1c2ccc(C)cc2c2nc(C)sc21,38.3 µg/mL
9,CCC(C)NC(=O)CN1C(=O)NC2NC(=O)NC21 (stereo not given),> 38.3 µg/mL
10,CN(C)CCCn1c(N)c(C#N)c2nc3ccccc3nc21,> 44.2 µg/mL
11,C=CCN1C(=O)C2C3CC(=O)C(c4ccccc43)C2C1=O (stereo not given),> 42.2 µg/mL
12,S=c1[nH]nc(CSCCOc2ccc(Cl)cc2Cl)o1,> 50.6 µg/mL
13,O=S(=O)(Nc1ccccc1N1CCCCC1)c1ccccc1,4.4 µg/mL
14,CC(C)(C)N1CC(C(=O)Nc2cccc(Cl)c2Cl)CC1=O (stereo not given),> 49.4 µg/mL
15,NC(=O)C1CC(=O)N(CCc2ccc(F)cc2)C1 (stereo not given),> 37.5 µg/mL
16,CCC(C)(CCNC(=O)Cc1ccccc1)c1ccccc1OC (stereo not given),15 µg/mL
17,NC(=O)COC(=O)c1ccc(S(=O)(=O)NCc2ccco2)cc1,> 50.8 µg/mL
18,COc1ccccc1C(=O)C1CCCN(Cc2ccc3c(c2)OCCO3)C1 (stereo not given),36.7 µg/mL
19,O=C(NCc1ccc(F)cc1)Nc1ccc(Cl)cc1,1.1 µg/mL
20,NC(=O)NC(Cc1ccccc1)C(=O)NNC(=O)COc1ccccc1Cl (stereo not given),> 58.6 µg/mL

row,SMILES,solubility kinetic
1,Nc1ccc(Oc2c(Cl)cccc2Cl)nc1,> 38.3 µg/mL
2,Cc1occc1C(=O)Nc1cnn(CCCC(=O)O)c1,> 41.6 µg/mL
3,CCc1ccc(Nc2ncc3c(n2)CC(C)(C)CC3=O)cc1,1.1 µg/mL
4,CCc1ccc(NC(=S)N2CCN(C)CC2)cc1,> 39.5 µg/mL
5,Cc1ccc(C)c(N=Cc2c(O)c3ccccc3oc2=O)c1,1.6 µg/mL
6,Clc1cc2nc[nH]c2cc1Cl,> 28.1 µg/mL
7,COc1cc(SC)ccc1C(=O)Nc1ccc(C)cc1,1.6 µg/mL
8,O=C(O)C1CCN(S(=O)(=O)c2ccc3c(c2)OCCCO3)CC1,> 51.2 µg/mL
9,OCCCNc1nc(-c2ccc(Cl)cc2)nc2ccccc12,1.8 µg/mL
10,COc1ccc2cc(C(=O)N3CCN(c4ccc(F)cc4)CC3)[nH]c2c1,1.6 µg/mL
11,CC12CCC(C[N+](C)(C)C1)C2(C)C.[I-] (stereo not given),> 46.4 µg/mL
12,CN(Cc1ccccc1)C(=O)c1cc(=O)[nH]c2ccccc12,> 43.9 µg/mL
13,Cc1ccc(N=C2C(=O)Nc3ccc(Br)cc32)cc1,1.1 µg/mL
14,COc1cc(NC(C)=O)ccc1NC(=O)c1cc2ccccc2o1,< 0.3 µg/mL
15,CN1CC(C(=O)Nc2ccc(F)c(Cl)c2)CC1=O (stereo not given),> 40.6 µg/mL
16,CCCOc1ccc(N/C=C/C(=O)c2ccc(OC)c(OC)c2)cc1,< 0.7 µg/mL
17,Cc1ccc(C(=O)Nc2cccnc2N2CCN(C)CC2)cc1,> 46.6 µg/mL
18,O=C(Nc1ccc2c(c1)OCO2)Nc1ccc(F)cc1F,0.9 µg/mL
19,O=[N+]([O-])c1ccc(Sc2ccccn2)nc1,34.9 µg/mL
20,COc1ccccc1NC(=S)NCc1ccccc1,14.8 µg/mL

row,SMILES,solubility kinetic
1,O=C(CCn1c(=S)oc2ccccc21)Nc1cccc(O)c1,8.6 µg/mL
2,O=C(NC1CCS(=O)(=O)C1)c1ccccc1Cl (stereo not given),> 41.1 µg/mL
3,Cn1c(N)c(C(=O)COC(=O)c2ccc(C(F)(F)F)cc2)c(=O)n(C)c1=O,15.2 µg/mL
4,CC(C)(C)c1ccc(C(=O)NCCOc2ccccc2)cc1,2.2 µg/mL
5,COc1ccc(C2(c3ccc(OC)cc3)NC(=O)N(CC(=O)Nc3cc(C)on3)C2=O)cc1,27.4 µg/mL
6,Cc1ccc2oc(=O)n(CCOc3ccccc3C)c2c1,< 0.6 µg/mL
7,N#CC(C#N)=Cc1cnc(N2CCN(c3ccccc3)CC2)s1,< 0.1 µg/mL
8,OCC1(Cc2ccccc2F)CCCN(CCc2ccccc2)C1 (stereo not given),40.7 µg/mL
9,C/C(=C/c1ccccc1)C(=O)N1CCN(c2ccccc2F)CC1,35.6 µg/mL
10,O=C(O)CCCCCCCCCC[n+]1ccccc1.[Br-],47.9 µg/mL
11,O=c1[nH]c(CSc2nc3ccccc3s2)nc2ccccc12,1.5 µg/mL
12,NC(=O)c1ccccc1NC(=O)c1cccc(C(=O)Nc2ccccc2C(N)=O)n1,5.3 µg/mL
13,CN(C)S(=O)(=O)c1cc(NC(=O)COC(=O)CC2Sc3ccccc3NC2=O)ccc1Cl (stereo not given),12.2 µg/mL
14,COc1ccccc1C(=O)Nc1ccncc1,33.4 µg/mL
15,COc1ccc(CNC(=O)c2cncc(Br)c2)cc1,45.8 µg/mL
16,CC1=C/C(=C\C=C(C#N)C#N)N(C)c2ccccc21,0.8 µg/mL
17,Cc1ccc(N2C(=O)CCC2(C(N)=O)c2ccccc2)cc1 (stereo not given),> 44.2 µg/mL
18,Cc1cc(NC(=O)c2ccc(F)cc2)ccc1NC(=O)c1ccco1,3.4 µg/mL
19,O=C(CNC(=O)[C@@H]1Cc2ccccc2CN1)NC1CCCC1,> 45.2 µg/mL
20,C=CCNC(=S)N1CCC(C(=O)c2ccc(Cl)cc2)CC1,43.5 µg/mL
